Reference: US20220202885A1, “ONCOLYTIC VIRUS WITH IMPROVED SAFETY AND […]” (BIONOXX INC., priority 2019, published 2022)

Experiments:
[1] = test system: human breast cancer cell line (MDA-MB-231) xenograft; experiment: Tumor volume in human breast cancer cell line-transplanted mice (Example 11); format: in vivo, mouse; details: MDA-MB-231 xenograft Balb/c nu/nu mice
[2] = test system: mouse colorectal cancer cell line (CT-26) allograft; experiment: Tumor volume in mouse colorectal cancer cell line-transplanted mice (Example 13.2); format: in vivo; details: CT-26 allograft Balb/c mice; WOTS-418 1×10^8 pfu i.p. D0, D3 and 1×10^7 pfu i.t. D14, D21; hydroxyurea 30 mg/kg i.p. once a day
[3] = test system: CD8+ T cells secreting IFN-γ; format: in vivo, mouse; details: CT-26 allograft Balb/c mice; same doses and regimens as tumor volume test; co-culture with CT-26 cells

hydroxyurea
tumor volume on day 31 relative to the initial tumor volume ([1]; HU 30 mg/kg i.p. twice a day, day 31): ≥ 5 fold | tumor growth (tumor volume measured for 31 days) ([1]; WOTS-418 1×10^7 pfu (D0 i.p., D10 i.t.), hydroxyurea 30 mg/kg i.p. twice a day): tumor growth was not inhibited | tumor volume on day 25 compared with the control group [2]: suppressed tumor volume | CD8+ T cells secreting IFN-γ among spleen CD8+ T cells, compared with control mice (ELISPOT) [3]: abundant
